In brackets after ≈: the same amount, converted by molar mass. Several values for one entry are separate records, joined by “and”; a condition that tells them apart may be missing. Equal entries are not always repeated.
How the values were obtained:
[1] = system: T. b. brucei strain Lister 427 (s427-WT); assay: resazurin EC50 assay, T. b. brucei wild-type bloodstream forms; assay type: cell-based, Trypanosoma brucei brucei; settings: Trypanosoma brucei, 72 h, 48 h + 24 h resazurin, average and SEM, at least three determinations, NE = no effect on cell viability at 100 µM
T. brucei B48 = assay: microbe, parasite or virus in culture; assay type: cell-based, Trypanosoma brucei brucei; settings: Trypanosoma brucei, read-out: T. Brucei, EC50, B48
T. brucei 2T1 PYR6-5 −/− = assay: microbe, parasite or virus in culture; assay type: cell-based, Trypanosoma brucei brucei; settings: for EC50: Trypanosoma brucei, read-out: T. Brucei, EC50, 2T1 PYR6-5 −/−
Tbb-5FURes = assay: microbe, parasite or virus in culture; assay type: cell-based, Trypanosoma brucei brucei; settings: for EC50: Trypanosoma brucei, read-out: T. Brucei, EC50, Tbb-5FURes
[2] = system: L. mexicana 5FURes (Lmex5FURes); settings: differences in EC50 between wild-type and 5FU-resistant L. mexicana
Experimental: (§1) Promastigotes of Leishmania mexicana strain MNY/BZ/62/M379 was cultured in a minimal essential medium, HO-MEMO-MEME, supplemented with 10% FBS and 1% of a penicillin/streptomycin solution (Gibco) as described previously [39] at 25 °C. The L. mexicana 5FURes strain was the same strain but adapted in vitro to high levels of 5FU exactly as described for T. brucei [12].
(§2) The resazurin assay for L. mexicana promastigotes was performed exactly as for T. b. brucei, except that incubation times of 72 and 48 h were used before and after the addition of resazurin, respectively, due to the slower metabolism of the dye by Leishmania promastigotes [42].

[3] = system: L. mexicana 5FURes (Lmex5FURes); assay: microbe, parasite or virus in culture; settings: Leishmania mexicana, read-out: L. Mexicana 5FUR, EC50
Experimental: as §1, §2

U-937 cells = assay: U-937 cytotoxicity (XTT); assay type: cell-based; settings: 6 days incubation
Experimental: The U-937 cells used in the cytotoxicity evaluation were obtained from the AIDS Research and Reference Program. The cells were cultured as indicated by the supplier in RPMI-1640 supplemented with 10% heat inactivated FBS, 1% penicillin/streptomycin solution, and 1% L-glutamine.
U-937 cells plated at 2.5 × 10^3 cells/well in a volume of 100 µL were incubated with serially diluted test compounds in a volume of 100 µL for 6 days at 37 °C/5% CO2. Following the incubation, the cells were stained by adding 50 μL tetrazolium dye XTT (Sigma) solution at 5 mg/mL to determine cellular viability and read at 460/650 nm on a spectrophotometer. Toxicity values were calculated using linear regression analysis.

[4] = system: M. tuberculosis ATCC 25,177 (H37Ra); assay: microbe, parasite or virus in culture; assay type: cell-based, Mycobacterium tuberculosis; settings: Mycobacterium tuberculosis, read-out: M. Tuberculosis 25,177 MIC
M. tuberculosis H37Rv = assay: microbe, parasite or virus in culture; assay type: cell-based; settings: Mycobacterium tuberculosis, control drugs at critical concentrations
T. vaginalis strain G3 = assay: resorufin-based EC50 assay, T. vaginalis; settings: Trichomonas vaginalis, read-out: Trichomonas Vaginalis, EC50
Experimental: The standard metronidazole-susceptible T. vaginalis strain G3was originally obtained from Jeremy Mottram (University of York, UK) and cultured in a modification of Diamond′s medium supplemented with 10% horse serum with a composition as described [40] at 37 °C under anaerobic conditions. Cultures were passaged daily.
Drugs were tested on T. vaginalis using a resorufin-based assay that we developed [40, 43]. The assay is based on the principle that live T. vaginalis trophozoites are, almost uniquely, able to reduce fluorescent, pink resorufin to non-fluorescent, colorless dihydro-resorufin. This conversion was measured as a dose-dependent increase in fluorescence (with dead cells unable to metabolize the fluorophore; λexc 544 nm, λem 599 nm), resulting in a sigmoid curve with variable slope that yielded EC50 values (Prism 6.0). Plates contained 11 doubling dilutions (1 row) and no-drug control for each compound starting at 100 µM under anaerobic conditions as described [40, 43]. Fluorescence was determined in a PheraStar plate reader (BMG Labtech).

M. tuberculosis MS-115 = assay: microbe, parasite or virus in culture; assay type: cell-based; settings: Mycobacterium tuberculosis, MS115, read-out: M. Tuberculosis MS-115 MIC
M. smegmatis 700,084 = assay type: cell-based, Mycobacterium smegmatis; settings: tested up to 250 µM
[5] = system: L. mexicana WT promastigotes (strain MNY/BZ/62/M379); assay: resazurin EC50 assay, L. mexicana promastigotes wild-type; settings: 72 h + 48 h resazurin, average and SEM, NE = no effect on cell viability at 100 µM
Experimental: as §1, §2

| Structure (SMILES) | EC50 [1] [µM] | EC50 (T. brucei B48) [µM] | EC50 (T. brucei 2T1 PYR6-5 −/−) [µM] | fold difference in EC50, PYR6-5 −/− versus wild-type (T. brucei 2T1 PYR6-5 −/−; sensitization for 5FU, reduction in trypanocidal activity for test compounds) [fold] | EC50 (Tbb-5FURes) [µM] | fold difference in EC50, 5FURes versus wild-type (Tbb-5FURes; resistance to 5FU, reduction in trypanocidal activity for test compounds) [fold] | fold resistance, Lmex5FURes versus wild-type [2] [fold] | EC50 [3] [µM] | U-937 Cells TC50 (U-937 cells) [µM] | MIC [4] | MIC (M. tuberculosis H37Rv) [µg/mL] | EC50 (T. vaginalis strain G3) [µM] | MIC (M. tuberculosis MS-115) [µg/mL] | concentration completely inhibiting growth of M. smegmatis (M. smegmatis 700,084) [µM] | L. Mexicana WT, EC50 [5] |
| --- | --- | --- | --- | --- | --- | --- | --- | --- | --- | --- | --- | --- | --- | --- | --- |
| O=c1[nH]cc(F)c(=O)[nH]1 [5-Fluorouracil, reference compound] | 87 ± 6.4 | 101 ± 7 | 2.33 ± 0.35 | 37.4 | 2500 ± 76 | 28.7 | > 400 | 3520 ± 440 |  |  |  |  |  |  |  |
| CCCCCCCCCCC#Cc1cn([C@H]2C=C[C@@H](O)C2)c(=O)n([C@H]2C=C[C@@H](O)C2)c1=O [Compound 2, 1-[4′-Hydroxy-2′-cyclopenten-1′-yl]-3-(4′′-hydroxy-2′′-cyclopent-en-1′′-yl)-5-dodecynyluracil] | 3.1 | 4 ± 0.4 | 5.5 ± 0.5 |  | 5.2 ± 0.6 |  |  | 51.1 ± 0.6 | 22.1 | 31 µM and 13.6 µg/mL | > 50 | 48.9 ± 0.05 |  |  |  |
| CCCCCCCCC#Cc1cn([C@H]2C=C[C@@H](O)C2)c(=O)n([C@H]2C=C[C@@H](O)C2)c1=O [Compound 3, 1-[4′-Hydroxy-2′-cyclopenten-1′-yl]-3-(4′′-hydroxy-2′′-cyclopent-en-1′′-yl)-5-decynyluracil] | ~13 | 14.7 ± 0.2 | 17.1 ± 1.2 |  | 19.9 ± 0.7 |  |  | 25.8 ± 0.4 | 2.2 | 31 µM and 12.8 µg/mL | 50 (≈ 121 µM) | 32 ± 0.001 | 50 (≈ 121 µM) |  |  |
| CCCCCCC#Cc1cn([C@H]2C=C[C@@H](O)C2)c(=O)n([C@H]2C=C[C@@H](O)C2)c1=O [Compound 4, 1-[4′-Hydroxy-2′-cyclopenten-1′-yl]-3-(4′′-hydroxy-2′′-cyclopent-en-1′′-yl)-5-octynyluracil] | ~13 | 17.7 ± 1 | 17.5 ± 1.2 |  | 24.9 ± 0.5 |  |  | 47.3 ± 0.4 | 73.8 | 31 µM and 11.9 µg/mL | > 50 | 54.1 ± 0.002 |  |  |  |
| CCCC#Cc1cn([C@H]2C=C[C@@H](O)C2)c(=O)n([C@H]2C=C[C@@H](O)C2)c1=O [Compound 5, 1-[4′-Hydroxy-2′-cyclopenten-1′-yl]-3-(4′′-hydroxy-2′′-cyclopent-en-1′′-yl)-5-pentynyluracil] | > 100 | > 100 | > 100 |  | > 100 |  |  | > 100 | 88.5 | > 1000 µM and > 342 µg/mL |  | 73.5 ± 0.08 |  |  |  |
| O=c1c(C#Cc2ccccc2)cn([C@H]2C=C[C@@H](O)C2)c(=O)n1[C@H]1C=C[C@@H](O)C1 [Compound 6] | > 100 | > 100 | > 100 |  | > 100 |  |  | > 100 | 166.2 | 500 µM and 188 µg/mL |  | 70.2 ± 0.06 |  |  |  |
| CC(C)(C)c1ccc(C#Cc2cn([C@H]3C=C[C@@H](O)C3)c(=O)n([C@H]3C=C[C@@H](O)C3)c2=O)cc1 [Compound 7, 1-[4′-Hydroxy-2′-cyclopenten-1′-yl]-3-(4′′-hydroxy-2′′-cyclopent-en-1′′-yl)-5-(4-tertbutylphenynylethenyl)uracil] | ~8 | 10.8 ± 0.6 | 14.7 ± 0.4 |  | 12.6 ± 1.4 |  |  | 45.3 ± 2.2 | 22.5 | 62.5 µM and 27 µg/mL | > 50 | 52.8 ± 0.007 |  | 250 |  |
| CCCCCc1ccc(C#Cc2cn([C@H]3C=C[C@@H](O)C3)c(=O)n([C@H]3C=C[C@@H](O)C3)c2=O)cc1 [Compound 8] | ~8 | 11 ± 0.6 | 15.4 ± 0.7 |  | 12 ± 1.2 |  |  | 27.5 ± 2.3 | 17.3 | 31 µM and 13.9 µg/mL | > 50 | 36.9 ± 0.18 |  | 250 |  |
| O=c1c(C#CCO)cn([C@H]2C=C[C@@H](O)C2)c(=O)n1[C@H]1C=C[C@@H](O)C1 [Compound 9, 1-[4′-Hydroxy-2′-cyclopenten-1′-yl]-3-(4′′-hydroxy-2′′-cyclopent-en-1′′-yl)-5-(hydroxypropynyl)uracil] | 66.8 ± 6.6 | 76.8 ± 4.4 | 59.9 ± 1 |  | 74.9 ± 3.5 |  |  | > 100 | >100 | 1000 µM and 330 µg/mL |  | 84.8 ± 0.004 |  |  | did not show any antileishmanial activity at all |

Reference: paper PMC6804079, “Investigation of 5’-Norcarbocyclic Nucleoside Analogues as Antiprotozoal and Antibacterial Agents” (Molecules, 2019)
